In article PMC4135079 (Journal of pharmacological and toxicological methods, 2013):
pIC50: −log10 of the molar value.

Columns and labels:
[1] = human Thorough-QT study; ref Gintant, 2011; cited from earlier work
hERG [2] = biological target: hERG (Homo sapiens, UniProt Q12809)
hERG [3] = conditions: read-out: hERG IC50; ref FDA pharmacology review (022068s000_PharmR_P1.pdf); cited from earlier work

hERG, sequence (Q12809 whole entry): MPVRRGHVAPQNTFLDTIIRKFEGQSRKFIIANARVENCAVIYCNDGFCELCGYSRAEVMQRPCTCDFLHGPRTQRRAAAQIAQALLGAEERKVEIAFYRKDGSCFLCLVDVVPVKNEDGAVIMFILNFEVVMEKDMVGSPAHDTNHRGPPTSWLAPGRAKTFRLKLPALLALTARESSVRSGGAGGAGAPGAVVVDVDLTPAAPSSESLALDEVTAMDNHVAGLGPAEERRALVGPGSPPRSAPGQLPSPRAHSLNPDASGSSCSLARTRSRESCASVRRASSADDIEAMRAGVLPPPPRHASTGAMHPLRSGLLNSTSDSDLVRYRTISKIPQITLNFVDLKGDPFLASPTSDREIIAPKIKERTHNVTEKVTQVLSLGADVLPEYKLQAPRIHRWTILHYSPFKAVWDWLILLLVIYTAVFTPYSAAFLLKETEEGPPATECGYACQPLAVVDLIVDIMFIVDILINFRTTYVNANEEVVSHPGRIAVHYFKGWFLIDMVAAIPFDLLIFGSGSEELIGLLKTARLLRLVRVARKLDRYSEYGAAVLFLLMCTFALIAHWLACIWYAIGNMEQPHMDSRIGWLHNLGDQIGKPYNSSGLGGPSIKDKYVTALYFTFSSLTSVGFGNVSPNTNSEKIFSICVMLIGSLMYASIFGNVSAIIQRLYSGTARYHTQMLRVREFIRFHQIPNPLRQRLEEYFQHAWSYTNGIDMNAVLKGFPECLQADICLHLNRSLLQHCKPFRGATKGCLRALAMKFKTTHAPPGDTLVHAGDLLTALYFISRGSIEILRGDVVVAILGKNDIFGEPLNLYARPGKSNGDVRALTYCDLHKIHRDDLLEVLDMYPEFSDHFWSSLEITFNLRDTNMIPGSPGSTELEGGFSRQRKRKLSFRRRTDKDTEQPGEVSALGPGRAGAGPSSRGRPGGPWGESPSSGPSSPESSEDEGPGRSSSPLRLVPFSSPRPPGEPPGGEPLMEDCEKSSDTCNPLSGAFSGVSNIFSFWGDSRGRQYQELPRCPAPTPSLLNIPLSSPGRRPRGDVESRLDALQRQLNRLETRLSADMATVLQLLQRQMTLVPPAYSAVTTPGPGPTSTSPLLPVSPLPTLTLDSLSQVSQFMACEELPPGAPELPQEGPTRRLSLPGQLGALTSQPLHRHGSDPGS

COc1cc2nc(N(C)CCCNC(=O)C3CCCO3)nc(N)c2cc1OC (centres unmarked) [Alfuzosin]
QTc prolongation observed in the TQT study [1]: 7.7 ms

O=C(CCCN1CCC(O)(c2ccc(Cl)cc2)CC1)c1ccc(F)cc1 [Haloperidol]
Hill Log-logistic α (hERG [2]): 1.469

Cc1cn(-c2cc(NC(=O)c3ccc(C)c(Nc4nccc(-c5cccnc5)n4)c3)cc(C(F)(F)F)c2)cn1 [Nilotinib]
pIC50 (hERG [3]): […] | QTc prolongation observed in the TQT study [1]: 15.8 ms

O=c1[nH]c2ccccc2n1C1CCN(CCCC(c2ccc(F)cc2)c2ccc(F)cc2)CC1 [Pimozide]
Hill Log-logistic α (hERG [2]): 1.586
